Measurements published in patent publication US8785430B2, “Compound that can inhibit UBC13-UEV interactions, pharmaceutical compositions and therapeutic uses” (Consejo Superior de Investigaciones Cientificas, priority 2006, dated 2014).

Test system: S. cerevisiae Δrev3 mutants
Assay: Survival of S. cerevisiae Δrev3 mutants after ultraviolet radiation or MMS
Type: cell-based, Saccharomyces cerevisiae
Conditions: 100 μM; UV or 0.03% MMS
Protocol: To determine if compounds Ia and Ib inhibit the function of Ubc13p-Mms2p, their capacity to mimic in S. cerevisiae the DNA repair phenotypes generated by the null mutation of ubc13 was evaluated. Thus, mutant strains in RAD6 or REV3 and the parent strain thereof (control) were used in viability assays after the exposure to ultraviolet radiation or MMS. The genotypes of the strains used are the following:
3) Strain Δrev3: MAT at his3Δ1 leu2Δ0 lys2Δ0 ura3Δ0 rev3::kanMX4
Cells were inoculated in liquid cultures with YPD medium overnight at 30° C., until reaching the log phase of growth. For the treatments with ultraviolet radiation, aliquots of cells, grown in the presence or absence of 100 μM of compounds Ia or Ib were irradiated in a Stratalinker instrument (Stratagene) at the energies indicated in FIGS. 7 and 8. For the treatment with the mutagenic agent MMS, aliquots of cells grown or not in medium with 100 μM of compounds Ia or Ib were incubated, 0.03% MMS being added, with subsequent incubation for the times indicated in FIGS. 7 and 8. After either treatment, 500 cells were seeded in plates with YPD medium, counting the colonies after 2 days.

`NC(=O)CN(CCc1ccccn1)C(=O)C1CC(=O)N(CCc2ccc(F)cc2)CC(=O)N1CCc1ccc(F)cc1` (stereo not shown) [Ia, N-aminocarbamoylmethyl-N-(2′-(2″pyridyl)ethyl)-1,4-bis[2′-(4″-fluorophenyl)ethyl]-3,7-dioxo-[1,4]diazepane-5-carboxamide] was tested, and the “sensitization of Δrev3 cells to UV radiation or exposure to MMS” value was “caused a higher sensitization of the cells”.
